The source made the active and inactive calls. The calls are words filed in the database; no cut-off is given here.
How the values were obtained:
Format in all cases: functional
[1] = test system: Staphylococcus aureus; assay: Antibacterial activity against Staphylococcus aureus ATCC 25923 after 24 hr by disk diffusion method
[2] = test system: Shigella sonnei; assay: Antibacterial activity against Shigella sonnei RSKK 877 after 24 hr by disk diffusion method
[3] = test system: Staphylococcus epidermidis; assay: Antibacterial activity against Staphylococcus epidermidis Mu 30 after 24 hr by disk diffusion method
[4] = test system: Bacillus cereus; assay: Antibacterial activity against Bacillus cereus RSKK 863 after 24 hr by disk diffusion method
[5] = test system: Salmonella; assay: Antibacterial activity against Salmonella 21.3 after 24 hr by disk diffusion method
[6] = test system: Bacillus subtilis; assay: Antibacterial activity against Bacillus subtilis RSKK 240 after 24 hr by disk diffusion method
[7] = test system: Candida albicans; assay: Antifungal activity against Candida albicans 16231 after 24 hr by disk diffusion method
[8] = test system: Escherichia coli; assay: Antibacterial activity against Escherichia coli ATCC 35218 after 24 hr by disk diffusion method
[9] = test system: Saccharomyces cerevisiae; assay: Antifungal activity against Saccharomyces cerevisiae TP (3-2) after 24 hr by disk diffusion method
[10] = test system: Pseudomonas aeruginosa; assay: Antibacterial activity against Pseudomonas aeruginosa ATCC 27853 after 24 hr by disk diffusion method
Further: test concentration or dose not given here.

SMILES: Cc1cccc(N2C3=C(C(=O)CCC3)C(c3cccc(C4C5=C(CCCC5=O)N(c5cccc(C)n5)C5=C4C(=O)CCC5)c3)C3=C2CCCC3=O)n1
- diameter of the inhibition zone (DIZ) [1]: 18 mm
- diameter of the inhibition zone (DIZ) [2]: 9 mm
- diameter of the inhibition zone (DIZ) [3]: 8 mm
- diameter of the inhibition zone (DIZ) [4]: inactive
- diameter of the inhibition zone (DIZ) [5]: 9 mm
- diameter of the inhibition zone (DIZ) [6]: inactive
- diameter of the inhibition zone (DIZ) [7]: 14 mm
- diameter of the inhibition zone (DIZ) [8]: 12 mm
- diameter of the inhibition zone (DIZ) [9]: 17 mm
- diameter of the inhibition zone (DIZ) [10]: 9 mm

SMILES: CC1(C)CC(=O)C2=C(C1)N(c1ccc(Br)cc1)C1=C(C(=O)CC(C)(C)C1)C2c1ccc(C2C3=C(CC(C)(C)CC3=O)N(c3ccc(Br)cc3)C3=C2C(=O)CC(C)(C)C3)cc1
- diameter of the inhibition zone (DIZ) [1]: 12 mm
- diameter of the inhibition zone (DIZ) [2]: 12 mm
- diameter of the inhibition zone (DIZ) [3]: 10 mm
- diameter of the inhibition zone (DIZ) [4]: inactive
- diameter of the inhibition zone (DIZ) [5]: 10 mm
- diameter of the inhibition zone (DIZ) [6]: inactive
- diameter of the inhibition zone (DIZ) [7]: 11 mm
- diameter of the inhibition zone (DIZ) [8]: 10 mm
- diameter of the inhibition zone (DIZ) [9]: 16 mm
- diameter of the inhibition zone (DIZ) [10]: 10 mm

SMILES: CC1(C)CC(=O)C2=C(C1)N(c1ccc(Cl)cc1)C1=C(C(=O)CC(C)(C)C1)C2c1ccc(C2C3=C(CC(C)(C)CC3=O)N(c3ccc(Cl)cc3)C3=C2C(=O)CC(C)(C)C3)cc1
- diameter of the inhibition zone (DIZ) [1]: 9 mm
- diameter of the inhibition zone (DIZ) [2]: 10 mm
- diameter of the inhibition zone (DIZ) [3]: 7 mm
- diameter of the inhibition zone (DIZ) [4]: inactive
- diameter of the inhibition zone (DIZ) [5]: 12 mm
- diameter of the inhibition zone (DIZ) [6]: inactive
- diameter of the inhibition zone (DIZ) [7]: 10 mm
- diameter of the inhibition zone (DIZ) [8]: 12 mm
- diameter of the inhibition zone (DIZ) [9]: 14 mm
- diameter of the inhibition zone (DIZ) [10]: 9 mm
